Target: T1, AbHEMC (porphobilinogen deaminase, PBGD) (Ananas comosus, UniProt A0A1B2LUE6)
T1 construct: gene hemC; E. coli Rosetta-gami (DE3); about 45 kD on SDS-PAGE
Assay: in vitro PBGD activity assay (method of Lee et al. […])
Type: biochemical
Conditions: recombinant fusion protein; substrate inferred from the named PBGD activity, assay conditions not given

T1 sequence (A0A1B2LUE6 entry or part of it): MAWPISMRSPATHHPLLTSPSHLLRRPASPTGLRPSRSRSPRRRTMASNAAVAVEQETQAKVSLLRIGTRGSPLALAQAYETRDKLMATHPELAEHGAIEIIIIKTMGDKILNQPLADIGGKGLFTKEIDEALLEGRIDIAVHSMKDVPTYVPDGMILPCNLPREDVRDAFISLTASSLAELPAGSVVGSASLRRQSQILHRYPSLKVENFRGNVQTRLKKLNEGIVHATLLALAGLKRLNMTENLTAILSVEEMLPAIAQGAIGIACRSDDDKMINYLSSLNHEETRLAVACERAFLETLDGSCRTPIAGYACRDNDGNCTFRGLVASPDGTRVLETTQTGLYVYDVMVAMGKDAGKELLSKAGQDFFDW

SMILES: NCc1[nH]cc(CCC(=O)O)c1CC(=O)O [porphobilinogen]
- in vitro PBGD activity assay (method of Lee et al. 1992): in vitro analysis showed that the prokaryotic-expressed AbHEMC protein had PBGD activity

From article PMC8018242, “AbhemC encoding porphobilinogen deaminase plays an important role in chlorophyll biosynthesis and function in albino Ananas comosus var. bracteatus leaves” (PeerJ, 2021)
